Reference: patent US20250075248A1, “SYSTEMS, METHODS, AND DEVICES FOR ANTIMICROBIAL SUSCEPTIBILITY TESTING” (Deepull Diagnostics S.L., priority 2022, published 2025)
Converted amounts (≈) assume the structure as drawn.

Tests used:
Format in all cases: cell-based
[1] = test system: Klebsiella pneumoniae ATCC13883; test: Microscopy-based AST (MIC) from spiked blood tube sample after lysis, enrichment and immunomagnetic separation
Description: First, Streptavidin coated beads were washed and immobilized. […] The typical binding capacity per mg (100 μL) of the magnetic beads used is approximately 20 μg of biotinylated antibody. After the coating, some washes with a phosphate saline buffer containing 0.01% of BSA (w/v) (adjusted pH 7.4) were performed. Finally, beads were resuspended to the desired concentration for the application. The antibody used was a biotin Klebsiella Polyclonal Antibody (PA1-73177, Invitrogen) and the magnetic beads used were Dynabeads MyOne Streptavidin T1 (65601, Thermofisher Scientific).
Blood samples were prepared from a single large blood pool from donors collected in 10 mL EDTA blood tubes which was spiked with the appropriate amount of bacteria (Klebsiella pneumoniae ATCC13883) depending on the target inoculum (around 100 CFU/10 mL). After the pool was spiked, 10 mL were transferred to a previously labelled 15 mL tube containing a lysing agent (700 μL of Isolator BC0507C, Oxoid) and an immiscible fluorocarbon oil (20 μL of Fluorinert™ FC-40 F9755, Sigma-Aldrich). To lyse and concentrate, samples were incubated for a short period of time (30 seconds) under rotatory movement at low speed (10 rpm) and centrifugated at 12.000 g force for 5 minutes with a fixed angle rotor. The supernatant of each sample was discarded until 500 μL used to prepare the matrix for the enrichment step. […]
For the immunomagnetic separation of the bacteria from the blood, 100 μL of antibody coated beads were added to each sample tube. […] These samples were also observed under an inverted fluorescence microscope in order to know the bacteria present in the sample and calculate the amount needed to perform the AST test, which was the next and last step in this end-to-end assay. 5 μL of each sample were transferred to a 384-well plate with a flat polystyrene film bottom and incubated with fluorescence dyes (SYBR Green and Propidium Iodide) during 10 min at room temperature in the dark. […]

[2] = test system: Klebsiella pneumoniae ATCC13883; test: Broth microdilution method MIC; conditions: K. pneumoniae ATCC13883, read-out: MIC according to broth microdilution method
[3] = test system: Klebsiella pneumoniae (IHMA1977064); test: Microscopy-based AST (MIC) from liquid culture
Description: The minimal inhibitory concentration was determined using embodiments disclosed herein for one strain of Gram-negative bacteria Klebsiella pneumoniae (IHMA1977064) with an MIC of 8 mg/L to meropenem according to the broth microdilution method. Bacteria was grown in liquid culture until an exponential phase in culture media. The cultures were diluted in culture media (Mueller Hinton cation adjusted broth) and was incubated at a final concentration of 2×10^4 CFU/mL during 5 hours at 37° C. at different concentrations of meropenem in a final volume of 10 μL. Meropenem concentrations tested were 32, 16, 8, 4, 2 and 1 mg/L […]. Three replicates were performed for each antibiotic concentration.
(§1) Samples were analyzed at time 0 of incubation and after 5 hours incubation (with and without antibiotic). 5 μL of each sample were transferred to a 384-well plate with flat polystyrene film bottom and incubated with fluorescence dyes (SYBR Green and Propidium Iodide) during 10 minutes at room temperature in the dark. The 384-well plate was centrifuged during 1 minute at 3000 g in a swinging-bucket movement and observed in an inverted fluorescence microscope. For each sample, a composite image covering the bottom of each well was constructed. Images were analyzed with a custom software to count bacteria, detect filamentous bacteria, counts red bacteria, and record the brightness of bacteria. These images are illustrated in FIG. 24A.
This graph is illustrated in FIG. 24B.

[4] = test system: Klebsiella pneumoniae (IHMA1977064); test: Broth microdilution method MIC; conditions: K. pneumoniae IHMA1977064, read-out: MIC according to broth microdilution method
[5] = test system: Klebsiella pneumoniae ATCC13883; test: Microscopy-based AST (MIC) from spiked blood culture bottle after immunomagnetic separation
Description: First, Streptavidin coated beads were washed and immobilized. The washing buffer and the immobilization process may be different depending on the application. […] The typical binding capacity per mg (100 μL) of magnetic beads used is approximately 20 μg of biotinylated antibody. After the coating, some washes were performed with a phosphate saline buffer containing 0.01% of BSA (w/v) (adjusted pH 7.4) and then beads were finally resuspended to the desired concentration for the application. The antibody used was a biotin Klebsiella Polyclonal Antibody (PA1-73177, Invitrogen) and the magnetic beads used were Dynabeads MyOne Streptavidin T1 (65601, Thermofisher Scientific).
Blood samples were prepared from a previously mixed single large blood pool which was spiked with the appropriate amount of bacteria (Klebsiella pneumoniae ATCC13883) depending on the target inoculum (around 100 CFU). After the pool was spiked, 10 mL were transferred to a previously labelled blood culture system (442023, BD BACTEC™ Plus Aerobic/F) and mixed with an agitation platform (5 minutes at 150 rpm). […]
The immunomagnetic separation of the bacteria was performed using a 15 mL tube containing 5 mL of a matrix extracted from a blood culture bottle and 100 μL of beads coated with anti-K. pneumoniae antibodies. […] The samples were also observed under an inverted fluorescence microscope in order to determine the number of bacteria present in the sample and calculate the adjustment needed to perform the AST test. 5 μL of each sample were transferred to a 384-well plate with flat polystyrene film bottom and incubated with fluorescence dyes (SYBR Green and Propidium Iodide) during 10 minutes at room temperature in the dark. The 384-well plate was centrifuged during 1 minute at 3000 g in a swinging-bucket centrifuge and observed in an inverted fluorescence microscope. […] Images were analyzed with a custom software to determine the number of bacteria. […]
Samples were analyzed at time 0 of incubation and after 5 h incubation (with and without antibiotic). […]

[6] = test system: Klebsiella pneumoniae (ATCC13883); test: Microscopy-based AST (MIC) from liquid culture
Description: Bacteria was grown in a liquid culture until an exponential phase in culture media. The cultures were diluted in culture media (Mueller Hinton cation adjusted broth) and was incubated at a final concentration of 2×10^4 CFU/mL during 5 hours at 37° C. at different concentrations of […] in a final volume of 10 μL. Gentamicin concentrations tested were 4, 2, 1, 0.5, 0.25 and 0.125 mg/L. Three replicates were performed for each antibiotic concentration.
as §1, with “Samples” for “5 μL of each sample”, “were” for “were transferred to a 384-well plate with flat polystyrene film bottom and”, “dark. After dye incubation, a sample of 1 μL was diluted with 4 μL of buffer (NaCl 0.9%) and transferred to a 384-well plate with flat polystyrene film bottom.” for “dark.”, “23A” for “24A.”
This graph is illustrated in FIG. 23B.

O=C(O)c1cn(C2CC2)c2cc(N3CCNCC3)c(F)cc2c1=O [ciprofloxacin, Ciprofloxacin]
MIC ([1]; Klebsiella pneumoniae, ATCC13883, 5 h): 0.015 µg/mL (≈ 0.0453 µM)
bacterial growth after 5 hours incubation ([1]; at 0.008 and 0.004 mg/L): growth
bacterial growth after 5 hours incubation ([1]; at a concentration ≥0.015 mg/L): did not grow
MIC [2]: 0.03 µg/mL (≈ 0.0905 µM)

C[C@@H](O)[C@H]1C(=O)N2C(C(=O)O)=C(S[C@@H]3CN[C@H](C(=O)N(C)C)C3)[C@H](C)[C@H]12 [meropenem, Meropenem]
MIC ([3]; Klebsiella pneumoniae, liquid culture, 2×10^4 CFU/mL, 5 hours at 37° C., image analysis): 4 µg/mL (≈ 10.4 µM)
bacterial growth after 5 hours incubation ([3]; at 2 and 1 mg/L): bacterial growth
bacterial growth after 5 hours incubation ([3]; at a concentration ≥4 mg/L): did not grow
MIC [4]: 8 µg/mL (≈ 20.9 µM)

Gentamicin
bacterial growth after 5 hours incubation ([5]; at 0.125 and 0.06 mg/L): growth
bacterial growth after 5 hours incubation ([5]; at a concentration ≥0.25): did not grow
MIC ([5]; blood culture bottle sample, 2×10^4 CFU/mL, 5 hours at 37° C., image analysis): 0.25 µg/mL
bacterial growth after 5 hours incubation ([6]; at 0.125 mg/L): bacterial growth
bacterial growth after 5 hours incubation ([6]; at a concentration ≥0.25 mg/L): did not grow
MIC ([6]; liquid culture, 2×10^4 CFU/mL, 5 hours at 37° C., image analysis): 0.25 µg/mL
